Results from the NIST ThermoML archive (doi:10.1021/je900124n).
Where “and” joins values, the source holds several entries; their conditions need not be identical. Equal entries are not always repeated.

Conditions: Fluid (supercritical or subcritical phases), Buoyancy - hydrostatic balance with magnetic suspension - two sinkers

CCC [propane]
Conditions	mass density
340 K, 34960 kPa	514.104 kg/m3
340 K, 34961 kPa	514.106 kg/m3
340 K, 34962 kPa	514.105 kg/m3
345 K, 2494.9 kPa	58.0748 kg/m3 and 58.0791 kg/m3 and 58.0771 kg/m3
345 K, 2495 kPa	58.0845 kg/m3 and 58.0787 kg/m3
350 K, 1942.1 kPa	37.8566 kg/m3 and 37.8552 kg/m3
350 K, 1942.5 kPa	37.8654 kg/m3 and 37.8643 kg/m3
350 K, 1942.6 kPa	37.8656 kg/m3
350 K, 2573.5 kPa	58.0372 kg/m3 and 58.0366 kg/m3
350 K, 2573.6 kPa	58.041 kg/m3 and 58.0413 kg/m3 and 58.0386 kg/m3
350 K, 2844.7 kPa	70.6094 kg/m3
350 K, 2844.9 kPa	70.6242 kg/m3
350 K, 2845 kPa	70.6246 kg/m3
350 K, 2845.1 kPa	70.6278 kg/m3 and 70.6365 kg/m3
350 K, 2845.2 kPa	70.6334 kg/m3
350 K, 2845.3 kPa	70.6504 kg/m3 and 70.6463 kg/m3
350 K, 3505.9 kPa	392.661 kg/m3
350 K, 3506 kPa	392.666 kg/m3
350 K, 3506.2 kPa	392.664 kg/m3
350 K, 3506.3 kPa	392.667 kg/m3
350 K, 3506.4 kPa	392.663 kg/m3 and 392.666 kg/m3
350 K, 3506.5 kPa	392.666 kg/m3
350 K, 12070 kPa	449.428 kg/m3 [middle of 6 runs]
350 K, 12071 kPa	449.434 kg/m3 and 449.429 kg/m3
350 K, 24455 kPa	484.992 kg/m3 and 484.989 kg/m3
350 K, 24456 kPa	484.992 kg/m3
355 K, 2650.7 kPa	57.9954 kg/m3 [middle of 4 runs]
355 K, 3003.3 kPa	73.4591 kg/m3 [middle of 6 runs]
355.01 K, 3003.3 kPa	73.4598 kg/m3
359 K, 3436 kPa	96.2198 kg/m3
359 K, 3436.4 kPa	96.2687 kg/m3 and 96.2618 kg/m3 and 96.2668 kg/m3
359 K, 3436.5 kPa	96.2652 kg/m3
359.99 K, 15760 kPa	448.817 kg/m3
359.99 K, 15761 kPa	448.823 kg/m3
360 K, 303.73 kPa	4.597 kg/m3 and 4.5969 kg/m3
360 K, 303.74 kPa	4.597 kg/m3 and 4.5971 kg/m3
360 K, 539.35 kPa	8.3504 kg/m3
360 K, 539.36 kPa	8.3506 kg/m3 and 8.3504 kg/m3 and 8.3503 kg/m3
360 K, 901.24 kPa	14.4832 kg/m3 and 14.4833 kg/m3
360 K, 901.25 kPa	14.4835 kg/m3 and 14.4836 kg/m3
360 K, 1361.2 kPa	23.0769 kg/m3 and 23.078 kg/m3
360 K, 1361.3 kPa	23.0792 kg/m3
360 K, 1361.4 kPa	23.0819 kg/m3 and 23.0827 kg/m3
360 K, 2033.2 kPa	37.8651 kg/m3
360 K, 2033.3 kPa	37.8677 kg/m3
360 K, 2033.4 kPa	37.8707 kg/m3
360 K, 2033.5 kPa	37.8723 kg/m3 and 37.8724 kg/m3
360 K, 2725.4 kPa	57.912 kg/m3
360 K, 2725.5 kPa	57.9157 kg/m3
360 K, 2725.6 kPa	57.9165 kg/m3
360 K, 3108.3 kPa	73.4362 kg/m3 [middle of 6 runs]
360 K, 3108.4 kPa	73.4363 kg/m3
360 K, 3467.9 kPa	96.3808 kg/m3 and 96.381 kg/m3
360 K, 3468 kPa	96.3801 kg/m3 and 96.3793 kg/m3 and 96.3804 kg/m3
360 K, 3730.9 kPa	352.636 kg/m3 and 352.637 kg/m3
360 K, 3731 kPa	352.635 kg/m3
360 K, 3731.1 kPa	352.636 kg/m3
360 K, 5948.1 kPa	392.145 kg/m3
360 K, 5948.8 kPa	392.137 kg/m3
360 K, 5949.1 kPa	392.137 kg/m3
360 K, 5949.4 kPa	392.137 kg/m3 and 392.14 kg/m3 and 392.139 kg/m3
360 K, 5949.5 kPa	392.138 kg/m3
360 K, 5949.7 kPa	392.139 kg/m3
360 K, 7930.9 kPa	409.823 kg/m3
360 K, 7931 kPa	409.821 kg/m3
360 K, 7931.2 kPa	409.824 kg/m3
360 K, 7931.3 kPa	409.824 kg/m3
360 K, 11923 kPa	433.101 kg/m3 [middle of 5 runs]
360 K, 15761 kPa	448.822 kg/m3 and 448.82 kg/m3 and 448.823 kg/m3
360 K, 15762 kPa	448.821 kg/m3 and 448.822 kg/m3
360 K, 16074 kPa	449.912 kg/m3
360 K, 16075 kPa	449.912 kg/m3 and 449.911 kg/m3
360 K, 19910 kPa	462.101 kg/m3 and 462.102 kg/m3
360 K, 23890 kPa	472.673 kg/m3 and 472.674 kg/m3 and 472.672 kg/m3
360 K, 23891 kPa	472.674 kg/m3
360 K, 30126 kPa	486.462 kg/m3
360 K, 30127 kPa	486.462 kg/m3
360 K, 35259 kPa	496.072 kg/m3
360 K, 35260 kPa	496.073 kg/m3 and 496.072 kg/m3
360 K, 35262 kPa	496.074 kg/m3
360.01 K, 901.24 kPa	14.4833 kg/m3
360.01 K, 3108.3 kPa	73.4355 kg/m3
365 K, 3675.6 kPa	100.804 kg/m3 and 100.799 kg/m3 and 100.803 kg/m3
365 K, 3675.7 kPa	100.805 kg/m3
365 K, 4200.9 kPa	337.532 kg/m3 and 337.539 kg/m3 and 337.537 kg/m3
365 K, 4201.1 kPa	337.536 kg/m3
365 K, 4201.2 kPa	337.534 kg/m3
365 K, 4201.3 kPa	337.537 kg/m3 and 337.54 kg/m3
365 K, 4201.5 kPa	337.541 kg/m3
369 K, 4143.7 kPa	146.446 kg/m3 [middle of 6 runs]
369 K, 4143.8 kPa	146.438 kg/m3 and 146.437 kg/m3
369 K, 4197.8 kPa	281.2 kg/m3 and 281.206 kg/m3
369 K, 4197.9 kPa	281.145 kg/m3
369 K, 4198 kPa	281.222 kg/m3 [middle of 4 runs]
369 K, 4198.1 kPa	281.241 kg/m3
369.82 K, 4245.5 kPa	199.588 kg/m3 and 199.89 kg/m3 and 199.647 kg/m3
369.82 K, 4245.6 kPa	199.834 kg/m3
369.82 K, 4246.6 kPa	245.595 kg/m3
369.82 K, 4985.6 kPa	337.371 kg/m3
369.82 K, 19374 kPa	448.259 kg/m3
369.82 K, 19375 kPa	448.259 kg/m3 [middle of 7 runs]
369.83 K, 3309.2 kPa	73.3627 kg/m3
369.83 K, 3309.3 kPa	73.3633 kg/m3 and 73.3643 kg/m3 and 73.3637 kg/m3
369.83 K, 3309.4 kPa	73.3693 kg/m3 [middle of 4 runs]
369.83 K, 4186.1 kPa	146.569 kg/m3
369.83 K, 4186.2 kPa	146.57 kg/m3 [middle of 6 runs]
369.83 K, 4186.3 kPa	146.572 kg/m3
369.83 K, 4245.5 kPa	199.889 kg/m3
369.83 K, 4245.6 kPa	200.17 kg/m3 and 199.849 kg/m3 and 199.989 kg/m3
369.83 K, 4246.6 kPa	245.029 kg/m3 and 245.142 kg/m3
369.83 K, 4246.7 kPa	245.511 kg/m3 and 245.436 kg/m3
369.83 K, 4246.8 kPa	245.25 kg/m3 and 245.225 kg/m3
369.83 K, 4246.9 kPa	245.368 kg/m3
369.83 K, 4284.4 kPa	281.216 kg/m3
369.83 K, 4284.5 kPa	281.229 kg/m3 and 281.217 kg/m3
